Measured values from patent US8735584B2 (Merck Patent GmbH, priority 2008, dated 2014).

What was measured:
Type in all cases: biochemical
ABL = biological target: T1, ABL (Homo sapiens, UniProt P00519); test: Desktop Profiler kinase panel, ABL; settings: for inhibition at 10 µM: 10 micromolar concentration of the compound, read-out: Percent Inhibition ABL
T1 construct: purchased Caliper Life Sciences
Experimental: (§1) The Aurora assays described here are performed on two Caliper Life Sciences systems: the LC3000 and the Desktop Profiler. These provide data on enzyme activity via measurement of the relative amounts of phosphorylated or unphosphorylated fluorescently labelled substrate peptide at the end of an enzymatic reaction. These different states of peptide are resolved by applying a potential difference across the sample. The presence of the charged phosphate group on the product (as opposed to the substrate) causes a different peptide mobility between the two peptides. This is visualized by excitation of the fluorescent label on the substrate and product peptides and represented as peaks within the analysis software.
(§2) The Desktop Profiler utilizes the same principle as the LC3000 for calculating percentage conversion of a substrate to product. Caliper Life Sciences provides proprietary flash frozen pre-made 384 well plates containing selected kinases. Each column in the 384 well plate contains a particular selected kinase. A second plate, the ‘substrate plate’ contains a mix of fluorescently labeled peptide substrate and ATP. These are arranged in columns so that transfer for substrate plate to enzyme plate provides the correct enzyme with the correct substrate/ATP concentration. Compounds are added to a thawed enzyme plate in the desired format, in single concentrations. Reactions are initiated by transfer of the substrate/ATP mix from the substrate plate. The enzyme plate is incubated for 90 mins at 25 C. The reaction is stopped by addition of 70 ul of Stop Buffer (100 mM HEPES pH 7.5, 0.015% Brij-35, 10 mM EDTA (Sigma, E7889)).
(§3) Reading of the plate in the Profiler is identical to the LC3000, and the ratio between substrate and product peaks provides the activity of the enzyme in that well. This is best represented by a plate heat map which colors each well by percent inhibition as compared to positive and negative controls (no inhibitors and no ATP respectively).
(§4) In the following Tables 3a-4-b, which show the results of the desktop profiler measurements, “+” means 50-70% inhibition, “++” means 70-90% inhibition, and “+++” means >90% inhibition. The enzymes tested for profiling were ABL, AKT1, AKT2, AurA, CHK1, CHK2, CK1d, Erk1, Erk2, FYN, GSK3b, INSR, LCK, LYN, MAPKAPK2, MET, MSK1, p38a, PKA, PKCz, PKD2, PRAK, RSK1 and SRC.

GSK3b = biological target: T2, GSK3b (Homo sapiens, UniProt P49841); test: Desktop Profiler kinase panel, GSK3b; settings: 10 micromolar concentration of the compound; read-out: Percent Inhibition GSK3b
T2 construct: purchased Caliper Life Sciences
Experimental: as §1, §2, §3, §4

CK1d = biological target: T3, CK1d (Homo sapiens, UniProt P48730); test: Desktop Profiler kinase panel, CK1d; settings: for inhibition at 10 µM: 10 micromolar concentration of the compound, read-out: Percent Inhibition CK1d
T3 construct: purchased Caliper Life Sciences
Experimental: as §1, §2, §3, §4

PKA = biological target: T4, PKA (Homo sapiens, UniProt P17612); test: Desktop Profiler kinase panel, PKA; settings: 10 micromolar concentration of the compound; read-out: Percent Inhibition PKA
T4 construct: purchased Caliper Life Sciences
Experimental: as §1, §2, §3, §4

p38a = biological target: T5, p38a (Homo sapiens, UniProt Q16539); test: Desktop Profiler kinase panel, p38a; settings: 1 micromolar concentration of the compound
T5 construct: purchased Caliper Life Sciences
Experimental: as §1
The Desktop Profiler utilizes the same principle as the LC3000 for calculating percentage conversion of a substrate to product. Caliper Life Sciences provides proprietary flash frozen pre-made 384 well plates containing selected kinases. Each column in the 384 well plate contains a particular selected kinase. A second plate, the ‘substrate plate’ contains a mix of fluorescently labeled peptide substrate and ATP. […]
Reading of the plate in the Profiler is identical to the LC3000, and the ratio between substrate and product peaks provides the activity of the enzyme in that well. […]

AurA = biological target: T6, AurA (Homo sapiens, UniProt O14965); test: Desktop Profiler kinase panel, AurA; settings: 10 micromolar concentration of the compound; read-out: Percent Inhibition AurA
T6 construct: purchased Caliper Life Sciences
T6 sequence (O14965 1-403): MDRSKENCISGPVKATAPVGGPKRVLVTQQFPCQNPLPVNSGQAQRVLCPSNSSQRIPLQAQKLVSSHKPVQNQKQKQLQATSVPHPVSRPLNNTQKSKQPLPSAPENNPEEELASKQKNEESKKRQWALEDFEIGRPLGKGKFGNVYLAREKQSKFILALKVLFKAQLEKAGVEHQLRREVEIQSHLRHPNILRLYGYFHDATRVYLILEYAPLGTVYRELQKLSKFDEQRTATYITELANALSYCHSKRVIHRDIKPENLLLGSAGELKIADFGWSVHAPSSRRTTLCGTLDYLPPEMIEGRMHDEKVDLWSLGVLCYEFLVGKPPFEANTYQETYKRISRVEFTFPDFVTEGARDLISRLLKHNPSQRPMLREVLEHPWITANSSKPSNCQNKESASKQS
Experimental: as §1, §2, §3, §4

FYN = biological target: T7, FYN (Homo sapiens, UniProt P06241); test: Desktop Profiler kinase panel, FYN; settings: for inhibition at 10 µM: 10 micromolar concentration of the compound, read-out: Percent Inhibition FYN
T7 construct: purchased Caliper Life Sciences
Experimental: as §1, §2, §3, §4

CHK2 = biological target: T8, CHK2 (Homo sapiens, UniProt O96017); test: Desktop Profiler kinase panel, CHK2; settings: 10 micromolar concentration of the compound; read-out: Percent Inhibition CHK2
T8 construct: purchased Caliper Life Sciences
Experimental: as §1, §2, §3, §4

PKD2 = biological target: T9, PKD2 (Homo sapiens, UniProt Q9BZL6); test: Desktop Profiler kinase panel, PKD2; settings: 10 micromolar concentration of the compound; read-out: Percent Inhibition PKD2
T9 construct: purchased Caliper Life Sciences
T9 sequence (Q9BZL6 1-878): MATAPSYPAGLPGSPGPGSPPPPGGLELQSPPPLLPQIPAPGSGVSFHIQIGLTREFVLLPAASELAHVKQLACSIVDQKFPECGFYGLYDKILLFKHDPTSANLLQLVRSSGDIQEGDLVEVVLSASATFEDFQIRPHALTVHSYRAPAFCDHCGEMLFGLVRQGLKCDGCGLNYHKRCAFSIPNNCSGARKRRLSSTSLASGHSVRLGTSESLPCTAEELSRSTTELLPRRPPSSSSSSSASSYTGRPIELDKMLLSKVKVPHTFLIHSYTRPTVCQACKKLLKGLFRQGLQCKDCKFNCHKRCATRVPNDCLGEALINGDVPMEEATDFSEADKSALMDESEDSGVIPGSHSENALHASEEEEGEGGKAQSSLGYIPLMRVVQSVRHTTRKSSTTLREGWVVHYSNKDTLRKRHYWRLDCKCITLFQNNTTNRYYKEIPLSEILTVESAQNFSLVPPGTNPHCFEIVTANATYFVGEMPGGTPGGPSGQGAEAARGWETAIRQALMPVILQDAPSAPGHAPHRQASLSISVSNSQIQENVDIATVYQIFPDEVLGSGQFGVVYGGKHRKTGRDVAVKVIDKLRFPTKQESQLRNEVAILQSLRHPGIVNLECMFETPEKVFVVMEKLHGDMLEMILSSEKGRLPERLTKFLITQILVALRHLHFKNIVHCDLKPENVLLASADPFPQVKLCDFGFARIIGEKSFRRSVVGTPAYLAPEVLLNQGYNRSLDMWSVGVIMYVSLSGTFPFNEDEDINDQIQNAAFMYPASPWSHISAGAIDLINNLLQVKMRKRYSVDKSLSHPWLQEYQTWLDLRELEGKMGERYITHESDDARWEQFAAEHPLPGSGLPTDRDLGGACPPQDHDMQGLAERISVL
Experimental: as §1, §2, §3, §4

AKT2 = biological target: T10, AKT2 (Homo sapiens, UniProt P31751); test: Desktop Profiler kinase panel, AKT2; settings: 10 micromolar concentration of the compound; read-out: Percent Inhibition AKT2
T10 construct: purchased Caliper Life Sciences
Experimental: as §1, §2, §3, §4

SRC = biological target: T11, SRC (Homo sapiens, UniProt P12931); test: Desktop Profiler kinase panel, SRC; settings: for inhibition at 10 µM: 10 micromolar concentration of the compound, read-out: Percent Inhibition SRC
T11 construct: purchased Caliper Life Sciences
Experimental: as §1, §2, §3, §4

LYN = biological target: T12, LYN (Homo sapiens, UniProt P07948); test: Desktop Profiler kinase panel, LYN; settings: for inhibition at 10 µM: 10 micromolar concentration of the compound, read-out: Percent Inhibition LYN
T12 construct: purchased Caliper Life Sciences
Experimental: as §1, §2, §3, §4

RSK1 = biological target: T13, RSK1 (Homo sapiens, UniProt Q15418); test: Desktop Profiler kinase panel, RSK1; settings: 10 micromolar concentration of the compound; read-out: Percent Inhibition RSK1
T13 construct: purchased Caliper Life Sciences
Experimental: as §1, §2, §3, §4

[1] = 1 micromolar concentration of the compound

T1 sequence (P00519 whole entry, species assumed): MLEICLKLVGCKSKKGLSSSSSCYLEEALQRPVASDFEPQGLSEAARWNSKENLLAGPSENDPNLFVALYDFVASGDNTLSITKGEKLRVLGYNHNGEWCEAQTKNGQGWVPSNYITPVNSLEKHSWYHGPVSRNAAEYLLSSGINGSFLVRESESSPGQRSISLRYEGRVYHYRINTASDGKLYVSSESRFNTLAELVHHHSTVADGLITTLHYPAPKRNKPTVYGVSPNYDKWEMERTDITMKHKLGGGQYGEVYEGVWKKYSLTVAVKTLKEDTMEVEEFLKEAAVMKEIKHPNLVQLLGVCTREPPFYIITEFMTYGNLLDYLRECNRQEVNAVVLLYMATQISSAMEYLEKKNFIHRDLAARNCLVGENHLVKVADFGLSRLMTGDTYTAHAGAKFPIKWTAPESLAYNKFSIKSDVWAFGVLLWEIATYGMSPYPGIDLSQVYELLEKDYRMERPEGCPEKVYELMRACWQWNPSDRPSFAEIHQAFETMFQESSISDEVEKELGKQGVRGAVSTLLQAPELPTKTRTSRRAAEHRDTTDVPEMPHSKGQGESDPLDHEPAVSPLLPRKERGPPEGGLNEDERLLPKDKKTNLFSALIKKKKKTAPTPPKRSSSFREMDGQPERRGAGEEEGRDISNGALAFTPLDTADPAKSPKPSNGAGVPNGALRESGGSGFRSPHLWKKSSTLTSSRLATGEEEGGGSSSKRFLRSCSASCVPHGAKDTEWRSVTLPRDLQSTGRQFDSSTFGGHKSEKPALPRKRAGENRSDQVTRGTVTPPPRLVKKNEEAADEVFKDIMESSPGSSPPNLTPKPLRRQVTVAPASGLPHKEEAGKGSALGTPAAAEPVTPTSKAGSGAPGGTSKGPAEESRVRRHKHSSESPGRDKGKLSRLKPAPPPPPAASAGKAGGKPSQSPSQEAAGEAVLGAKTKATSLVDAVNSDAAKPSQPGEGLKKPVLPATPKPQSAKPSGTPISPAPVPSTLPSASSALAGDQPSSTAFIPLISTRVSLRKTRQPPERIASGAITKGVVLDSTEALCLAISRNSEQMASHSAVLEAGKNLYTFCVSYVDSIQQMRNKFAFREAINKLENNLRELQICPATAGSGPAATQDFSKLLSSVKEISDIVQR
T3 sequence (P48730 whole entry): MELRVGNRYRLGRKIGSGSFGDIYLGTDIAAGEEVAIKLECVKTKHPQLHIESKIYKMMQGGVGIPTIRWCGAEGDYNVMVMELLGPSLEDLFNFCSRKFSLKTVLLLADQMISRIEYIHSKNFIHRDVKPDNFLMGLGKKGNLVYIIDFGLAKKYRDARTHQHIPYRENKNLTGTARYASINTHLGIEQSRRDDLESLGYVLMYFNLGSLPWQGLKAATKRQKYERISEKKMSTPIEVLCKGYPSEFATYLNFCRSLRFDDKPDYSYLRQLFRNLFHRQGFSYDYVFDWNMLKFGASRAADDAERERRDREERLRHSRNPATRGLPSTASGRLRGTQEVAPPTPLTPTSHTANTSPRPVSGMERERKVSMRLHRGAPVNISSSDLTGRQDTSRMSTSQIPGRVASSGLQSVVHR
T12 sequence (P07948 whole entry, species assumed): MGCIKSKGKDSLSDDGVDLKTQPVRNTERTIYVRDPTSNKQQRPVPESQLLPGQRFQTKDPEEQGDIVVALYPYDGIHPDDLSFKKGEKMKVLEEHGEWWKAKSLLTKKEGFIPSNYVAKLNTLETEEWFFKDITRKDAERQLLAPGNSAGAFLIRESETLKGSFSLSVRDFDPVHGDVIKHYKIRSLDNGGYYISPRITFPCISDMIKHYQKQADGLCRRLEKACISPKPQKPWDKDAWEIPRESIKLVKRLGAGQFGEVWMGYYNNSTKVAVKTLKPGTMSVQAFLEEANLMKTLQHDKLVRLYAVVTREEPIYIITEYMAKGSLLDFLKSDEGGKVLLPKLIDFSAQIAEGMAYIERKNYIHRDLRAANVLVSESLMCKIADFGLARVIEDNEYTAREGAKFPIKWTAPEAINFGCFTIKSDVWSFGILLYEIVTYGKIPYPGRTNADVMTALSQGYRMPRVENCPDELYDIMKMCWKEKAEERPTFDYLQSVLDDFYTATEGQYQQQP
T11 sequence (P12931 whole entry, species assumed): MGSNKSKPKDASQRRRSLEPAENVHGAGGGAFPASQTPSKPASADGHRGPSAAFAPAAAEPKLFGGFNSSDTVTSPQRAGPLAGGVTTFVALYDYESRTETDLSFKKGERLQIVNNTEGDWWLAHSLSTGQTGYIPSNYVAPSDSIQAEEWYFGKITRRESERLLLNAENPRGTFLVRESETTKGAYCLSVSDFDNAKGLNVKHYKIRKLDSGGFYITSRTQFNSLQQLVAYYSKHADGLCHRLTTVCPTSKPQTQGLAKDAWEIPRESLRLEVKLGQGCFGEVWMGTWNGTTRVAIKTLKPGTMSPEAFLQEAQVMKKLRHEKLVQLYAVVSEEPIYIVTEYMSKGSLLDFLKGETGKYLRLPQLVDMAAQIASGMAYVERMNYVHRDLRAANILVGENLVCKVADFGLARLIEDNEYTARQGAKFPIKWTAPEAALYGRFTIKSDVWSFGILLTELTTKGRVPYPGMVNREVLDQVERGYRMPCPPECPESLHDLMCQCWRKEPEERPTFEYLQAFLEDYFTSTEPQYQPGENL
T7 sequence (P06241 whole entry, species assumed): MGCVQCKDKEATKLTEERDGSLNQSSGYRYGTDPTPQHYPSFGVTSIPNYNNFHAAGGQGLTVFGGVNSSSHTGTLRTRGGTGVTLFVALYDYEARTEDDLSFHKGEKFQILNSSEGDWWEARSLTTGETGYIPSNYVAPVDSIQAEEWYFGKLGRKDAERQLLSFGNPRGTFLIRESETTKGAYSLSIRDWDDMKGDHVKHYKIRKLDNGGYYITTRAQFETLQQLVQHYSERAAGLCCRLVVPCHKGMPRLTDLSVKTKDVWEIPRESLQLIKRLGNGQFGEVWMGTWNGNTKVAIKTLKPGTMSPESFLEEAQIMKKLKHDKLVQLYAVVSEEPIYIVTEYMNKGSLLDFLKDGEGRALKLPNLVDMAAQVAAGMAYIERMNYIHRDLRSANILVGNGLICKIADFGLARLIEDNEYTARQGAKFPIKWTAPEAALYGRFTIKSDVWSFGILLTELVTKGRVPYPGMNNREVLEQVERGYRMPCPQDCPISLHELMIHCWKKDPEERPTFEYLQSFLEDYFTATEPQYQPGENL
T2 sequence (P49841 whole entry, species assumed): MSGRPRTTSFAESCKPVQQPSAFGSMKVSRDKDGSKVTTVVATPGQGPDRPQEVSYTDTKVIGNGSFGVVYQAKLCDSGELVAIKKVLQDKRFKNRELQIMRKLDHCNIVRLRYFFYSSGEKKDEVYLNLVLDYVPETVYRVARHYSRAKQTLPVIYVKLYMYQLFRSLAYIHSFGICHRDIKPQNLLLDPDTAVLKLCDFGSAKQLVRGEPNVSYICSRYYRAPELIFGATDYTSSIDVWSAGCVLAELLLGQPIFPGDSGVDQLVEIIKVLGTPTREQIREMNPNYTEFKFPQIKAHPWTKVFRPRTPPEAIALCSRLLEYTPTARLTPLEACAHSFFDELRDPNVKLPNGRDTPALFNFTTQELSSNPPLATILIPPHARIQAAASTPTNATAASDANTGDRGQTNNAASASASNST
T13 sequence (Q15418 whole entry, species assumed): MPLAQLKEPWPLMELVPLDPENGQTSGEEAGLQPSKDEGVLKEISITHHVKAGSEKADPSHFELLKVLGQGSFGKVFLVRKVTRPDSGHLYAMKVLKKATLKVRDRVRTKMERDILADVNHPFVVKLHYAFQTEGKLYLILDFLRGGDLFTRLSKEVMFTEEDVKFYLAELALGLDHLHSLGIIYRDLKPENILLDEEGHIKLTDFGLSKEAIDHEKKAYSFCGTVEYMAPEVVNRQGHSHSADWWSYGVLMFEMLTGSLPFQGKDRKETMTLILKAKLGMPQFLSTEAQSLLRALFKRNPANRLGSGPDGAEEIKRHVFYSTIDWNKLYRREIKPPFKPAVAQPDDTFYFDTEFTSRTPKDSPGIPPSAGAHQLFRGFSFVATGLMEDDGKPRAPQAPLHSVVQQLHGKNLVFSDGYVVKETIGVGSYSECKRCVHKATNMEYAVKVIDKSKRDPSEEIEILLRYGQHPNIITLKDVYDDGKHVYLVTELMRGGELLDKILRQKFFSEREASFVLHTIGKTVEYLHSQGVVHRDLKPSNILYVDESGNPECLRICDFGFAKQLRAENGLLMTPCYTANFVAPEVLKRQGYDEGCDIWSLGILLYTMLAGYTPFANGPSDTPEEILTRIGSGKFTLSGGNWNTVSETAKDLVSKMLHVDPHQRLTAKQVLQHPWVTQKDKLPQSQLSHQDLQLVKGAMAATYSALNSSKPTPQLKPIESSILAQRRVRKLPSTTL
T5 sequence (Q16539 whole entry): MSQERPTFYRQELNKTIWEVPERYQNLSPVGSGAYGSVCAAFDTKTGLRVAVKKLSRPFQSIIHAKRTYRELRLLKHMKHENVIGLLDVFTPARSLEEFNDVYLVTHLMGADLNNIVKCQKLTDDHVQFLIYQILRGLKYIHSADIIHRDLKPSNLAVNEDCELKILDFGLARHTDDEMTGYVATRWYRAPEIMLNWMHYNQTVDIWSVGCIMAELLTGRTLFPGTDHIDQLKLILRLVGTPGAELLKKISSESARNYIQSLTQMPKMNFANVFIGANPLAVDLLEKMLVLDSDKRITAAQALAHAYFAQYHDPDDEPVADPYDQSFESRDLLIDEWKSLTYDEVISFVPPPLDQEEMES

inhibition at 10 µM (ABL) [%] | inhibition at 10 µM (GSK3b) [%] | inhibition at 10 µM (CK1d) [%] | inhibition at 10 µM (AurA) [%] | inhibition at 10 µM (FYN) [%] | inhibition at 10 µM (PKD2) [%] | inhibition at 10 µM (SRC) [%] | inhibition at 10 µM (LYN) [%] | SMILES | also measured
50 to 70 | 50 to 70 | – | – | – | – | – | – | Clc1ccc2c(Nc3cccc(Br)c3)nc3ncccc3c2c1 [Example 59, (3-Bromo-phenyl)-(9-chloro-benzo[c][1,8]naphthyridin-6-yl)-amine] | –
– | – | 50 to 70 | – | – | – | – | – | O=c1[nH]c2nccc(Cl)c2c2ccccc12 [Example 83, 1-Chloro-5H-benzo[c][1,8]naphthyridin-6-one] | inhibition at 10 µM (PKA): 50 to 70%
70 to 90 | 50 to 70 | 50 to 70 | 70 to 90 | 70 to 90 | 50 to 70 | 50 to 70 | 70 to 90 | O=c1[nH]c2nccc(NCc3ccccc3)c2c2ccccc12 [Example 96, 1-Benzylamino-5H-benzo[c][1,8]naphthyridin-6-one] | inhibition at 1 µM (p38a): 50 to 70%; inhibition at 1 µM (CK1d; [1]): 50 to 70%; inhibition at 1 µM (FYN; [1]): 70 to 90%; inhibition at 10 µM (CHK2): 50 to 70%; inhibition at 1 µM (ABL; [1]): 70 to 90%; inhibition at 10 µM (AKT2): 50 to 70%; inhibition at 1 µM (SRC; [1]): 50 to 70%; inhibition at 1 µM (LYN; [1]): 70 to 90%
– | – | – | 50 to 70 | 50 to 70 | 50 to 70 | – | 50 to 70 | COc1cccc(CNc2ccnc3[nH]c(=O)c4ccccc4c23)c1 [Example 98, 1-(3-Methoxy-benzylamino)-5H-benzo[c][1,8]naphthyridin-6-one] | –
70 to 90 | – | – | – | 70 to 90 | – | 70 to 90 | 70 to 90 | Clc1nc2nccc(NCc3ccccc3)c2c2ccccc12 [Example 103, Benzyl-(6-chloro-benzo[c][1,8]naphthyridin-1-yl)-amine] | inhibition at 10 µM (RSK1): 50 to 70%
